# Assay results: US4237135A, “2-(4-Ethyl-1-piperazinyl)-4-phenylquinoline, process for preparation thereof, and composition thereof” (Dainippon Pharmaceutical Co., Ltd., priority 1978, dated 1980)
# Where two headings read alike, the source gives them in different places.
# Assays:
# tremorine-induced tremor = experiment: Anti-tremorine activity (antagonistic effect on tremorine-induced tremor); format: in vivo, male STD-ddY strain mice
# Procedure: (§1) Pharmacological experiments have been done on the compound of the present invention, some known and novel analogous compounds and an antidepressant on the market, as mentioned below. In the experiments, ED50 was calculated by Litchfield-Wilcoxon method.
# Male STD-ddY strain mice, weighing 20-25 g, were used in groups of 5 mice each. Each test compound was given orally to the mice in 5 different doses, and 2 hours later 20 mg/kg of tremorine was injected intraperitoneally. Half an hour after the injection of tremorine, each mouse was examined macroscopically for tremor severity, according to the rating scale with the scores 0, 1, 2, and 3 depending on the severity. ED50 was calculated for each compound. The ED50 means the dose of test compound in which the tremorine-induced tremor was inhibited by 50% in severity.
# [1] = system: methamphetamine-induced locomotor activity; experiment: Anti-methamphetamine effect (inhibitory effect on methamphetamine-induced locomotor activity); format: in vivo, male STD-ddY strain mice
# Procedure: as §1
# Male STD-ddY strain mice, weighing 20-25 g, were used in groups of 10 mice each. Groups of mice were injected intraperitoneally with 4 mg/kg of methamphetamine, and 30 minutes later each test compound was injected intraperitoneally in 3 different doses. One hour after the injection of methamphetamine, locomotor activity of each mouse was measured for 10 minutes with an Animex locomotor activity meter.
# [2] = system: brain 3-methoxy-4-hydroxyphenylethylene glycol sulfate (MOPEG-SO4); experiment: Effect on brain monoamine metabolites: MOPEG-SO4; format: in vivo, male Wistar strain rats; details: 100 mg/kg p.o.; for Brain MOPEG-SO4, % of control: *P<0.01
# Procedure: (§2) Each test compound was given orally to the rats in a dose of 100 mg/kg and, 1, 3 and 6 hours later the rats were sacrificed. […] The concentrations of the monoamine metabolites were calculated in terms of ng/g wet brain tissue and expressed as % of the concentrations of controls receiving saline.
# [3] = system: spontaneous locomotor activity; experiment: Inhibitory effect on spontaneous locomotor activity; format: in vivo, male STD-ddY strain mice
# Procedure: as §1
# Male mice of STD-ddY strain, weighing 20-25 g, were used in groups of 5 mice each. Each test compound was given orally to the mice in 5 different doses, and 2 hours later the spontaneous locomotor activity of each mouse was measured for 3 minutes by means of an Animex locomotor activity meter (made by Farad Electronics). ED50 was calculated for each compound. The ED50 means the dose of test compound in which the locomotor activity was reduced to 50% of that of control group receiving saline.
# [4] = system: catalepsy induced by reserpine; experiment: Anti-reserpine activity: antagonistic effect on catalepsy induced by reserpine; format: in vivo, male STD-ddY strain mice; details: p.o.; for ED50: Mus musculus, po, 1 h, reserpine 5 mg/kg i.p.
# Procedure: In the experiments, ED50 was calculated by Litchfield-Wilcoxon method. Male STD-ddY strain mice, weighing […], were used in groups of 10 mice each. […] The mice were tested for catalepsy 1 hour after the administration of test compounds. ED50 was calculated for each compound.
# Acute toxicity = details: mouse, in vivo, 7 days observation
# Procedure: (§3) Male STD-ddY strain mice, weighing 20-25 g, were used. Each test compound was given orally or intraperitoneally to the mice (each group: 10 mice) in 5 to 7 different doses, and their mortality was examined during the observation period of 7 days. The median lethal dose (LD50) was calculated for each compound by the probit method.
# mice = experiment: Acute toxicity; details: mouse, in vivo
# Procedure: as §3
# [5] = system: spontaneous and methamphetamine-induced locomotor activities; experiment: Neuroleptics-like activity, overall (Test 2); format: in vivo, male STD-ddY strain mice; details: overall conclusion
# [6] = system: brain homovanillic acid (HVA); experiment: Effect on brain monoamine metabolites: HVA; format: in vivo, male Wistar strain rats; details: 100 mg/kg p.o.; for Brain HVA, % of control: *P<0.01
# Procedure: as §2
# [7] = system: ptosis induced by tetrabenazine; experiment: Anti-tetrabenazine activity: antagonistic effect on ptosis induced by tetrabenazine; format: in vivo, male STD-ddY strain mice; details: Mus musculus, po; tetrabenazine 70 mg/kg i.p.; Table 2
# Procedure: Pharmacological experiments have been done on the compound of the present invention, some known and novel analogous compounds and an antidepressant on the market, as mentioned below. In the experiments, ED50 was calculated by Litchfield-Wilcoxon method. Male STD-ddY strain mice, weighing 20-25 g, were used in groups of 10 mice each. […] Two hours after the tetrabenazine injection, the degree of eyelid closure (ptosis) was assessed on the basis of macroscopic scoring (0: no closure of the eyelid, 1: 1/4 closure, 2: 2/4 closure, 3: 3/4 closure and 4: complete closure), essentially according to the method of P. A. J. Janssen [Arzneim. Forsch. 15, 104 (1965)]. ED50 was calcuated for each compound.
# antidepressant activity = experiment: Antidepressant activity, overall (Test 1); format: in vivo, male STD-ddY strain mice; male Wistar strain rats
# Procedure: This effect was examined according to the method of […]. 2, 725 (1963)], using male STD-ddY strain mice weighing 20-25 g. […] Rectal temperature of each mouse was measured 4 hours later with a thermister (Shibaura Electric, BMG III-130). […] Male STD-ddY strain mice, weighing […], were used in groups of 10 mice each. […] The mice were tested for catalepsy 1 hour after the administration of test compounds. ED50 was calculated for each compound. […] Male STD-ddY strain mice, weighing 20-25 g, were used in groups of 10 mice each. […] Two hours after the tetrabenazine injection, the degree of eyelid closure (ptosis) was assessed on the basis of macroscopic scoring (0: no closure of the eyelid, 1: 1/4 closure, 2: 2/4 closure, 3: 3/4 closure and 4: complete closure), essentially according to the method of P. A. J. Janssen [Arzneim. Forsch. 15, 104 (1965)]. ED50 was calcuated for each compound. […] Male Wistar strain rats, weighing 240-260 g, which had developed mouse-killing behavior after ablation of the olfactory bulb according to the method of Z. P. Horovitz [Int. J. Neuropharmacol. 5, 405 (1966)], were used in groups of 15 animals each. […] ED50 was calculated for each compound.
structure (smiles),measurement,setting,value
"CCN1CCN(c2cc(-c3ccccc3)c3ccccc3n2)CC1.Cl.Cl [A, 2-(4-Ethyl-1-piperazinyl)-4-phenylquinoline dihydrochloride]",ED50,"tremorine-induced tremor; Mus musculus, po, tremorine 20 mg/kg i.p., read-out: Anti-tremorine activity ED50",9.7 mg/kg
same,Anti-tremorine activity (in words),tremorine-induced tremor; p.o.,more potent than imipramine and almost comparable to biperiden
same,ED50,"[1]; Mus musculus, ip, methamphetamine 4 mg/kg i.p., read-out: Anti-methamphetamine ED50",8 mg/kg
same,"Activity relative to chlorpromazine, methamphetamine-induced locomotor activity","[1]; fraction of chlorpromazine activity, i.p.",about 1/8
same,Brain MOPEG-SO4 concentration / noradrenaline turnover (in words),[2],significant decrease in brain MOPEG-SO4 concentration
same,"Brain MOPEG-SO4, % of control",[2]; 1 hour,82 % of control
same,"Brain MOPEG-SO4, % of control",[2]; 3 hours,70 % of control
same,"Brain MOPEG-SO4, % of control",[2]; 6 hours,63 % of control
same,ED50,"[3]; Mus musculus, po, 2 hours after dosing, read-out: Spontan. locomotor ED50",58.7 mg/kg
same,"Activity relative to chlorpromazine, spontaneous locomotor activity","[3]; fraction of chlorpromazine activity, p.o.",about 1/8
same,ED50,"[4]; Table 1, read-out: Anti-reserpine activity ED50, catalepsy",1.5 mg/kg
same,ED50,"[4]; Table 2, read-out: Anti-reserpine ED50, catalepsy",1.5 mg/kg
same,Potency in antagonizing reserpine catalepsy relative to imipramine,[4]; versus imipramine,25.5 times more powerful
same,LD50 at 168 h,Acute toxicity; ip,119 mg/kg
same,LD50 at 168 h,Acute toxicity; po,568 mg/kg
same,Acute toxicity (in words),mice,comparable to or somewhat weaker than that of imipramine
same,Neuroleptics-like activity (in words),[5],shows some neuroleptics-like effects
same,Brain HVA concentration / dopamine turnover (in words),[6],marked increase in brain HVA concentration
same,"Brain HVA, % of control",[6]; 1 hour,193 % of control
same,"Brain HVA, % of control",[6]; 3 hours,186 % of control
same,"Brain HVA, % of control",[6]; 6 hours,186 % of control
same,ED50,[7],1.8 mg/kg
same,Anti-reserpine activity (in words),"antidepressant activity; hypothermia and catalepsy, p.o.",more potent anti-reserpine activity than imipramine
same,Antidepressant activity (in words),antidepressant activity; overall conclusion,"more potent than its analogues, compounds 1 and 2 and also than imipramine"
same,Anti-reserpine and anti-tetrabenazine potency relative to compounds 4 and 5,"antidepressant activity; versus compounds 4 and 5, Table 2, p.o.",2-17 times more potent
